# Laboratory results taken from patent publication US9862684B2, “Modulation of K2P channels” (The Regents of the University of California, priority 2013, dated 2018).
# “And” between values parts separate entries of the source, which are not always exact repeats. Equal values may be shown once. Read-outs that look alike come from different tables or passages of the source.
# Experiments:
# K2P3.1 (TASK-1) = target: T1, K2P3.1 (TASK-1) (Mus musculus, UniProt O35111); experiment: Two-electrode voltage clamp, Xenopus oocytes expressing K2P3.1 (TASK-1); format: cell-based, Murine
# T1 construct: expressed in transfected cells; host or cells: Xenopus oocytes
# T1 sequence (O35111 whole entry): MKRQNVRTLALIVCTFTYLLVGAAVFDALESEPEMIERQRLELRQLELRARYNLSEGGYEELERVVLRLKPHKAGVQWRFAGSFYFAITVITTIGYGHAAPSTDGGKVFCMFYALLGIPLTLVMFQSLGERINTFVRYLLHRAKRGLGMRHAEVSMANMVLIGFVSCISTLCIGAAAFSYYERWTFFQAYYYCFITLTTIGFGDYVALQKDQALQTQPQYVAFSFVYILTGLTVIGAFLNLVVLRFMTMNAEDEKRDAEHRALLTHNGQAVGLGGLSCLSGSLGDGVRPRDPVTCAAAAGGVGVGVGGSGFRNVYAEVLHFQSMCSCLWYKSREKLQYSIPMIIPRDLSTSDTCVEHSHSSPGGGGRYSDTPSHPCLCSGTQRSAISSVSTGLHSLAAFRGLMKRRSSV
# Method: FIG. 7 ML67-33 is a selective activator of heat- and mechanosensitive K2P channels. a-f, Exemplar I-V curves showing the effect of ML67-33 on a, K2P10.1 (TREK-2), b, K2P4.1 (TRAAK), c, K2P3.1 (TASK-1), d, K2P9.1 (TASK-3), e, K2P5.1 (TASK-2), and f, K2P18.1 (TRESK) measured in Xenopus oocytes in 2 mM [K^+]o pH 7.4. Currents were elicited by a voltage ramp from −150 to 50 mV, from a holding potential of −80 mV. g, Quantification of the effect of ML67-33 on the indicated channels. Data (mean±s.e., n≧6, N≧2) was normalized to basal channel activity and fitted to the Hill equation. […] Error bars indicate s.e., n≧6, N≧2.
# Murine K2P channels were cloned into pGEMHE/pMO {Bagriantsev, 2011}, IRES-GFP (Invitrogen), or pYES2-MET25 (high copy 2μ, URA3) {Minor, 1999} for expression in oocytes, HEK-293T cells, and yeast, respectively, using standard molecular biology procedures, and verified by DNA sequencing.
# Two-electrode voltage clamp recordings were performed from defolliculated stage V-VI Xenopus oocytes 24-48 hours after injection with 0.015-6.0 ng cRNA, using microelectrodes (0.3-3.0 MΩ) filled with 3M KCl. Data was acquired using the GeneClamp 500B (MDS Analytical Technologies) amplifier controlled by the pClamp software (Molecular Devices), and digitized at 1 kHz using Digidata 1332A (MDS Analytical Technologies). Recording solutions (mM): 2K (96 NaCl, 2 KCl, 1.8 CaCl2, 2 MgCl2), 90K (90 KCl, 8 NaCl, 1.8 CaCl2, 2 MgCl2), were buffered 5 mM HEPES pH 7.4. For K2P recordings, currents we elicited by a 1 second long ramp from −150 to +50 mV from a holding potential of −80 mV (2K), or −100 to +50 mV from a holding potential of 0 mV (90K). For KCNQ2 recordings, currents were elicited by a step protocol from −120 to 60 mV, in 20 mV increments, from a holding potential of −80 mV. Patch-clamp recordings from HEK-293T cells were performed using microelectrodes (2-3 MΩ) filled with 1M KCl. Data was acquired using the Axopatch 200B amplifier controlled by pClamp software, and digitized at 1 kHz using Digidata 1332A. Recording solutions (mM): intracellular (145 KCl, 5 EGTA, 3 MgCl2,) extracellular (150 NaCl, 5 KCl, 3 MgCl2, 1 CaCl2) were buffered with 5 mM HEPES pH 7.2 and 7.4, respectively. Currents were elicited by a 1 second long ramp from −150 to +50 mV from a holding potential of −80 mV. Data were fitted with a modified Hill's equation: I=Imin+(Imax−Imin)/(1+10^((Log EC50−Log [C])*H)), where Imax and Imin are maximal and minimal current values, respectively, EC50 is a half-maximal effective concentration of the compound, and H is the Hill coefficient.
# There are six K2P subgroups {Noel, 2011} (FIG. 11). […]
# K2P2.1 (TREK-1) = target: T2, K2P2.1 (TREK-1) (Mus musculus, UniProt P97438); experiment: Two-electrode voltage clamp of Xenopus oocytes expressing K2P2.1 (TREK-1); format: cell-based, Murine
# T2 construct: expressed in transfected cells; host or cells: Xenopus oocytes (cRNA injection, pGEMHE/pMO)
# T2 sequence (P97438 1-411 isoform P97438-2): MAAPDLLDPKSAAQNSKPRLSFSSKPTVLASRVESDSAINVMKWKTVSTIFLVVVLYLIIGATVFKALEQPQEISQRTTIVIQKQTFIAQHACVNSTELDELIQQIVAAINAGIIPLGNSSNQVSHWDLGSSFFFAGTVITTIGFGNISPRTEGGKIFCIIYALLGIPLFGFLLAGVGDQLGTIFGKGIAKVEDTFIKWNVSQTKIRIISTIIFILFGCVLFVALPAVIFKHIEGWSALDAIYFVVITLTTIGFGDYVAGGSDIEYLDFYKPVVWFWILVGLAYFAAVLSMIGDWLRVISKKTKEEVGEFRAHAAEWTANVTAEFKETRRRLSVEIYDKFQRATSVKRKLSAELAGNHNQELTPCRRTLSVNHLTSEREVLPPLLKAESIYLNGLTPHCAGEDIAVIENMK
# Method: Two-electrode voltage clamp recordings were performed from defolliculated stage V-VI Xenopus oocytes 24-48 hours after injection with 0.015-6.0 ng cRNA, using microelectrodes (0.3-3.0 MΩ) filled with 3M KCl. […] Recording solutions (mM): 2K (96 NaCl, 2 KCl, 1.8 CaCl2, 2 MgCl2), 90K (90 KCl, 8 NaCl, 1.8 CaCl2, 2 MgCl2), were buffered 5 mM HEPES pH 7.4. For K2P recordings, currents we elicited by a 1 second long ramp from −150 to +50 mV from a holding potential of −80 mV (2K), or −100 to +50 mV from a holding potential of 0 mV (90K). For KCNQ2 recordings, currents were elicited by a step protocol from −120 to 60 mV, in 20 mV increments, from a holding potential of −80 mV. […] Currents were elicited by a 1 second long ramp from −150 to +50 mV from a holding potential of −80 mV.
compound,measurement,setting,value
"CC1(C)c2cc(Cl)ccc2N(CCc2nnn[nH]2)c2ccc(Cl)cc21 [ML67-33, 2,7-dichloro-9,9-dimethyl-10-[2-(1H-tetrazol-5-yl)ethyl]acridine]",functional effect / activation (in words),"K2P3.1 (TASK-1); ML67-33 applied at 100 μM, ML67 concentration not stated",little or no functional effects
same,Emax (fold),"K2P3.1 (TASK-1); at 100 μM (FIG. 7 legend), ** in Table 1",1.1±0.0 fold and 1.1 ± 0.1** fold
same,EC50,"K2P2.1 (TREK-1); Xenopus oocytes, 2 mM [K+]o pH 7.4, data at 0 mV, normalized to basal activity, Hill fit, read-out: EC50",36.3 ± 1.04 µM
same,Emax (fold) at 100 μM,"K2P2.1 (TREK-1); Xenopus oocytes, at 100 μM (FIG. 4, 7 legends), marked ** in Table 1, footnote not given",11.1±0.4 fold
same,Emax (fold),"K2P2.1 (TREK-1); Xenopus oocytes, fold over basal current, no concentration stated",11.1 ± 0.4 fold
same,response of K2P2.1 (TREK-1) to ML67-33 with C-type gate stabilized (in words),"K2P2.1 (TREK-1); high extracellular potassium, 90 mM [K+]o",reduced the response
same,EC50,"K2P2.1 (TREK-1); spans oocytes and HEK cells, read-out: concentration at which the compound acts (EC50 range)",9.7 to 36.3 µM
